Assay results reported in patent US9579325B2, “Modulators of TNF-α signaling” (Genzyme Corporation, priority 2000, dated 2017).
Where two headings read alike, the source gives them in different places.

Assays:
[1] = Pharmacokinetic parameters; type: in vivo; settings: for half-life: unit and species not given, read-out: Pharmacokinetic Parameters t1/2 (converted)
L929 cells = experiment: TNF High Throughput Screen (TNF-α driven apoptosis assay); type: cell-based, mouse; settings: human TNF-α + actinomycin D, read-out: TNFα IC50
Text: (§1) Description of Table V: The results shown in Table V were obtained using the TNF-α assays performed as described in the protocols entitled “Method for TNF High Throughput Screen” and “Method for VCAM High Throughput Screen”, which are detailed below. These assays measure a cellular response to TNF-α stimulation, and the data published in the table are expressed as percentage inhibitions. Percentage inhibition is computed on a scale of 0 to 100% where 0 percent inhibition means the compound has no effect in the assay (the response is indistinguishable from TNF-α treatment alone), and 100% inhibition means that when the compound is present at the stated concentration, the response in the assay is the same as if TNF-α were not added. These two assays measure two different outcomes of TNF-α treatment, cell death and Vascular Cell Adhesion Molecule (VCAM) expression, and capture two of TNF-α's many biological effects. TNF-α induced apoptosis is a mechanism by which TNF-α production during immune/inflammatory responses can lead to direct cellular and tissue damage. TNF-α VCAM expression in endothelial cells is a response that allows leukocytes to leave the blood and enter a site of immune/inflammatory response. Both of these activities could lead to pathology in immune/inflammatory diseases. In the first column of the table, the percentage inhibition of the TNF-α driven apoptosis assay when the compounds are tested at 1 μM concentration is presented. The second column in the table lists the IC50 for the compound, a standard measure using a dilution series in the assay, and fitting a sigmoidal curve to the resulting dose-response curve. The IC50 is the concentration (derived analytically from the sigmoidal function) at which the compound would inhibit 50% of the response in the assay. The third and fourth column list the corresponding analysis for the TNF-α driven VCAM assay. In Table VI, data corresponding to the data in column 1 of Table V is shown, with human cells replacing the mouse cells used in the high throughput screen. […] As a consequence, the compounds will have use in treating more than one TNF-α mediated condition, and may be selected according to the manner in which the condition manifests. This corresponds to the use of these compounds in the treatment of human disease.
TNF High Throughput Screen.
• 1. Plate 4×10^4 L929 cells in 100 μl of complete EMEM in Costar 96 well plates in PM. • 2. The next day, pretreat with compound, inhibitor and control vehicle for 2 hours. • 3. After 2 hours pretreatment, add 10 μl 5 ng/ml human TNF-α and actinomycin D (40 μg/ml final concentration). • 4. Incubate overnight. • 5. In AM, remove supernatant. • 6. Wash on a plate washer (0.9% NaCl). • 7. Add 100 μl Crystal Violet 0.1% in 20% ETOH. • 8. Incubate at RT for 10 minutes. • 9. Wash on plate washer. • 10. Air dry wells at 37° C. • 11. Add 100 μl of methanol to each well. • 12. Shake plates on orbital shaker and read at 595 nm on plate reader. VCAM High Throughput Screen: Protocol: • 1. Plate Primary human umbilical vein endothelial cells at 1.8×10^4 cells/well in a 96-well tissue culture plate. • 2. Return Plates to 37° C. incubator for 48-72 hours before assay. • 3. On assay day, aspirate wells and add 1804, of endothelial growth cell medium (EGM) to each well. • 4. Add Compound to each well. • 5. Shake plates for 3 minutes. • 6. Incubate plate for 1 hour at 37° C. • 7. Add Tumor Necrosis Factor (TNF) at 1.0 ng/ml final concentration. • 8. Shake plates for 3 minutes. • 9. Incubate plate for 2 hours at 37° C. • 10. Remove plate from incubator and wash plate 3 times with phosphate buffered saline (PBS) using a plate washer. • 11. Add anti-VCAM antibody at 0.5 μg/ml final concentration. • 12. Incubate at 4° C. overnight. • 13. Wash 3 times with PBS on plate washer. • 14. Add goat anti-mouse horseradish peroxidase conjugate. • 15. Incubate at room temperature for one hour. • 16. Wash 3 times with PBS on plate washer. • 17. […]

male rats = experiment: Inflammatory Bowel Disease model: rat DNBS distal colitis; type: in vivo; settings: 7 doses
Protocol: Groups of three male rats weighing 150+/−10 g and fasted for 24 hours were used. Distal colitis was induced by intracolonic instillation of 0.5 ml/rat DNBS (2,4-dinitrobenzene sulfonic acid, 60 mg/ml in ethanol 30%) after which air (2 ml) was gently injected through the cannula to ensure that the solution remains in the colon. A test compound was administered orally 24 and 2 hours before DNBS-instillation and then daily for 5 days in a total of 7 doses. The animals were sacrificed 24 hours after the final dose of test compound administration and each colon was removed and weighed.

C57/BL mouse = experiment: Sepsis model: murine LPS-d-galactosamine model; type: in vivo; settings: prevention of mortality over three days
Protocol: Sepsis was induced in the C57/BL mouse by the intravenous injection of 20 ng of lipopolysaccharide/animal plus 20 mgs d-galactosamine/animal. Inhibition was measured as the prevention of mortality over a three day period. Compounds were administered intraperitoneally in 10% cremophore/10% ethanol/80% normal saline one hour before induction.

[2] = tested on: Vascular Cell Adhesion Molecule (VCAM) expression in primary human umbilical vein endothelial cells; experiment: VCAM High Throughput Screen (TNF-α driven VCAM expression); type: cell-based; settings: HUVEC, TNF 1.0 ng/ml
Text: as §1
• 1. Plate 4×10^4 L929 cells in 100 μl of complete EMEM in Costar 96 well plates in PM. • 2. The next day, pretreat with compound, inhibitor and control vehicle for 2 hours. • 3. After 2 hours pretreatment, add 10 μl 5 ng/ml human TNF-α and actinomycin D (40 μg/ml final concentration). • 4. Incubate overnight. • 5. In AM, remove supernatant. • 6. Wash on a plate washer (0.9% NaCl). • 7. […] Shake plates on orbital shaker and read at 595 nm on plate reader. […]

SMILES	IC50 (L929 cells; Mus musculus) [µM]	IC50 [2] [µM]	further results
O=C(c1ccccc1)c1ccccc1C(=O)N(CCc1c[nH]cn1)C(Cc1ccccc1)C(=O)NCC(c1ccccc1)c1ccccc1 (racemic) [Compound 43]	2.98		bioavailability ([1]; in vivo, po, species not given): < 1%; half-life ([1]; in vivo): 3.6 h; Inflammatory Bowel Disease: Rat DNBS model % inhibition of colonic weight gain (male rats; 50 mg/kg orally): 31% @ 50 mg/kg; Sepsis: Murine LPS-d-galactosamine model % inhibition (C57/BL mouse; 10 mg/kg intraperitoneally one hour before induction): 33 @ 10 mg/kg %
COc1ccc(C(C(=O)NCC(c2ccccc2)c2ccccc2)N(CCc2c[nH]cn2)C(=O)c2ccccc2C(=O)c2ccccc2)cc1C (stereo not drawn) [Compound 42]	0.779	16	
Cc1nn(-c2nccc(-c3ccccn3)n2)c(C)c1SCc1ccc(Cl)cc1 [Compound 119, 2-[4-(4-Chloro-benzylsulfanyl)-3,5-dimethyl-pyrazol-1-yl]-4-pyridin-2-yl-pyrimidine]		7.95	half-life ([1]; in vivo): 2.3 h; Pharmacokinetic Parameters % oral bioavailability ([1]; species not given): Undetectable; Inflammatory Bowel Disease: Rat DNBS model % inhibition of colonic weight gain (male rats; 100 mg/kg orally): 51% @ 100 mg/kg; Sepsis: Murine LPS-d-galactosamine model % inhibition (C57/BL mouse; 200 mg/kg intraperitoneally one hour before induction): 33 @ 200 mg/kg %
Cc1nn(-c2nccc(-c3ccccn3)n2)c(C)c1S(=O)(=O)Cc1ccc(Cl)cc1 [Compound 124, 2-[4-(4-Chloro-phenylmethanesulfonyl)-3,5-dimethyl-pyrazol-1-yl]-4-pyridin-2-yl-pyrimidine]		13.4	
Cc1nn(-c2ncnc(-c3ccccn3)n2)c(C)c1Sc1ccc(Cl)cc1 [Compound 141, 2-[4-(4-Chloro-phenylsulfanyl)-3,5-dimethyl-pyrazol-1-yl]-4-pyridin-2-yl-[1,3,5]triazine]	0.0011		
Cc1nn(-c2nc(N)nc(-c3ccccn3)n2)c(C)c1Cc1ccccc1 [Compound 142, 4-(4-Benzyl-3,5-dimethyl-pyrazol-1-yl)-6-pyridin-2-yl-[1,3,5]triazin-2-ylamine]	0.152		
Cc1nn(-c2nc(N)nc(-c3ccccn3)n2)c(C)c1CCCc1ccccc1 [Compound 144, 4-[3,5-Dimethyl-4-(3-phenyl-propyl)-pyrazol-1-yl]-6-pyridin-2-yl-[1,3,5]triazin-2-lyamine]			IC50 (L929 cells): 0.015 µM
CC1=NN(c2nccc(-c3ccccn3)n2)C(=O)C1Sc1ccc(Cl)cc1 (stereo not drawn) [Compound 147, 4-(4-Chloro-phenylsulfanyl)-5-methyl-2-(4-pyridin-2-yl-pyrimidin-2-yl)-2,4-dihydro-pyrazol-3-one]	0.734		
COc1c(Sc2ccc(Cl)cc2)c(C)nn1-c1nccc(-c2ccccn2)n1 [Compound 148, 2-[4-(4-Chloro-phenylsulfanyl)-5-methoxy-3-methyl-pyrazol-1-yl]-4-pyridin-2-yl-pyrimidine]	32.1		
